For one assay, the system named is CT-26 flank tumors. Kind of assay: CT-26 flank tumor model. The format is in vivo, mouse. Conditions: acyclovir 2 mg/ml with dextran sulfate 100 μg/ml and 1×10^7 pfu NV1020. As to the method:
Different modes of delivery were also examined to determine the efficacy of systemic delivery of HSV on tumor growth. Flank tumors were established in mice by subcutaneous injection of CT-26 cancer cells. The mice were then administered 1×10^7 pfu of NV1020 either intratumorally or systemically by tail vein. Tumor growth rates were then assessed by measuring the tumor volume biweekly (FIG. 8).
Mice were anesthetized using ketamine (70 mg/kg) and xylazine (10 mg/kg). CT-26 cells (5×10^4 cells resuspended in 100 μl of PBS) were injected subcutaneously into the right flank of each mouse, using a 26-gauge needle. The cells formed a tumor, which was allowed to grow to a size of approximately 100 to 150 mm^3. Injections of the desired therapy were then initiated. Tumor volumes were generally measured biweekly. The animals were sacrificed once the tumor volume reached 1500 mm^3.
Tail vein administration of the desired therapy was carried out using techniques commonly known in the art.

The next assay has as its system CT-26 cells. Kind of assay: CT-26 morphology and cell growth in culture. As to conditions: 72 hours. The format is cell-based. As to the method:
To better understand the in vivo effects of dextran sulfate or dextran in combination with HSV, the effects of dextran sulfate on cell morphology and cell proliferation were evaluated in a cell culture model. CT-26 cells were treated with 100 μg/ml of dextran sulfate or were left untreated. After 48 hours, cell numbers and morphology were examined (FIG. 15). […] In the presence of dextran sulfate, CT-26 cells appeared more evenly spread across tissue culture dishes (panel B) as compared to the “clumped” appearance of CT-26 cells in the absence of dextran sulfate (panel A).
The effect of dextran sulfate, acyclovir, or a combination of both dextran and acyclovir were also examined for their effects on cell growth in vitro. Cultured CT-26 cells were administered dextran sulfate (100 μg/ml), acyclovir (2 mg/ml), both dextran sulfate and acyclovir, or were left untreated (control). CT-26 cells were counted at various time points following addition each formulation.

For `Nc1nc2c(ncn2COCCO)c(=O)[nH]1` [acyclovir], the tumor growth result in the assay on CT-26 flank tumors is given as “reduced tumor growth”. In addition, the “growth of the cells (number of cells/ml) compared to untreated cells” value with CT-26 cells (acyclovir 2 mg/ml together with dextran sulfate 100 μg/ml) and with CT-26 cells (acyclovir 2 mg/ml) was “did not vary significantly” throughout.

The values are drawn from patent US20040166092A1, “Use of viral vectors and charged molecules for gene therapy” (priority 1999, published 2004).
